Results on two compounds are retold here after US7758886B2, “Pharmaceutical aerosol composition” (Pari GmbH, priority 2003, dated 2010).

Each structure is given as a SMILES string. Values after ≈ are worked out from the molar mass of the structure shown.

Data set [1] can be described thus: Saturation solubility of budesonide in buffered aqueous tyloxapol / DMPC solutions (0.22 μm filtrate). As to conditions: for solubility: buffered aqueous tyloxapol/DMPC solution, aqueous with cosolvent or surfactant or cyclodextrin, thermodynamic from solid. The class given is physicochemical. How it is done: Buffered aqueous solutions of tyloxapol, DMPC and tyloxapol in a mixture with DMPC were prepared. The saturation solubility of budesonide in these solutions was measured by adding an excess of budesonide and treating the sample with heat and ultrasound and subsequently allowing it to stand for equilibration. The equilibrated samples were filtered through a membrane filter with a poor width of 0.22 μm and the content of budesonide in the filtrate was determined.

A short description of data set [2]: Colloidal solubilization of corticosteroid with non-ionic surfactant and lecithin (Lipoid S 100). The format is physicochemical. As to conditions: for solubility: pH 4.5, aqueous with cosolvent or surfactant or cyclodextrin. How it is done:
In analogy to example 2, colloidal solutions of budesonide were prepared using polysorbate 80 as non-ionic surfactant component (instead of tyloxapol) and lecithin of the commercial grade, Lipoid S 100, as phospholipid component. Citric acid and sodium citrate were used as buffer system to adjust the pH to 4.5. Sodium chloride (0.846% w/w) was used as osmotic excipient. Disodium edetate (0.01% w/w) was incorporated as stabilizer preventing oxidation.
The taste of the samples was acceptable. The average diameter of the colloidal structures ranged from about 40 to about 50 nm, with polydispersity indices of 0.2 to 0.3. The colloidal solution with the lowest concentration of the non-ionic surfactant and phospholipid component was also investigated by small angle X-ray scattering, which indicated the presence of colloidal structures which were probably in the form of unilamellar liposomes.
In analogy to example 9, colloidal solutions of budesonide were prepared using vitamin E TPGS as non-ionic surfactant component and lecithin of the commercial grade, Lipoid S 100, as phospholipid component. The other excipients and their content remained the same as in example 9.
The taste of the samples was acceptable. The particles size of the colloidal structures was about 50 to 55 nm, with polydispersity indices of 0.2 to 0.3.
In analogy to example 9, colloidal solutions of budesonide were prepared using both vitamin E TPGS and polysorbate 80 in combination as non-ionic surfactant component and lecithin of the commercial grade, Lipoid S 100, as phospholipid component. The other excipients and their content remained the same as in example 9.
In analogy to example 9, colloidal solutions of budesonide were prepared using macrogol-15-hydroxystearate as non-ionic surfactant component and lecithin of the commercial grade, Lipoid S 100, as phospholipid component. The other excipients and their content remained the same as in example 9.
In analogy to example 9, colloidal solutions of were prepared using polysorbate 80 as non-ionic surfactant component and lecithin of the commercial grade, Lipoid S 100, as phospholipid component. However, fluticasone propionate was used instead of budesonide as poorly water soluble active agent. The other excipients and their content remained the same as in example 9.

`CCCC1O[C@@H]2C[C@H]3[C@@H]4CCC5=CC(=O)C=C[C@]5(C)[C@H]4[C@@H](O)C[C@]3(C)[C@]2(C(=O)CO)O1` (stereo partly shown) [Budesonide, budesonide]: the solubility in data set [1] (Tyloxapol 0 wt %, DMPC 1 wt %) was determined as 20 µg/mL (≈ 46.5 µM); in data set [1] (Tyloxapol 1 wt %, DMPC 0.5 wt %) it was 268 µg/mL (≈ 622 µM); in data set [1] (Tyloxapol 1.5 wt %, DMPC 0 wt %) it was 204 µg/mL (≈ 474 µM); in data set [2] (Polysorbate 80 0.10 wt.%, Lipoid S100 1.0 wt.%, pH 4.5, read-out: Budesonide solubilized), 360 µg/mL; in data set [2] (Polysorbate 80 0.15 wt.%, Lipoid S100 1.5 wt.%, pH 4.5, read-out: Budesonide solubilized), 430 µg/mL; in data set [2] (Polysorbate 80 0.25 wt.%, Lipoid S100 1.5 wt.%, pH 4.5, read-out: Budesonide solubilized), 470 µg/mL. For the same compound, the solubility in data set [2] (Polysorbate 80 0.40 wt.%, Lipoid S100 1.5 wt.%, pH 4.5, read-out: Budesonide solubilized) turned out to be 500 µg/mL; in data set [2] (Polysorbate 80 0.50 wt.%, Lipoid S100 2.0 wt.%, pH 4.5, read-out: Budesonide solubilized), 830 µg/mL; in data set [2] (Polysorbate 80 0.50 wt.%, Lipoid S100 3.0 wt.%, pH 4.5, read-out: Budesonide solubilized) it was 1090 µg/mL; in data set [2] (Solutrol HS 15 0.10 wt.%, Lipoid S100 1.5 wt.%, read-out: Budesonide solubilized), 430 µg/mL; in data set [2] (Solutrol HS 15 0.25 wt.%, Lipoid S100 1.5 wt.%, read-out: Budesonide solubilized), 470 µg/mL; in data set [2] (Solutrol HS 15 0.50 wt.%, Lipoid S100 1.5 wt.%, read-out: Budesonide solubilized), 480 µg/mL. The solubility in data set [2] (Vitamin E TPGS 0.10 wt.%, Lipoid S100 1.0 wt.%, read-out: Budesonide solubilized) was found to be 370 µg/mL; in data set [2] (Vitamin E TPGS 0.10 wt.%, Lipoid S100 1.5 wt.%, read-out: Budesonide solubilized), 440 µg/mL; in data set [2] (Vitamin E TPGS 0.25 wt.%, Lipoid S100 1.5 wt.%, read-out: Budesonide solubilized), 460 µg/mL; in data set [2] (Vitamin E TPGS 0.50 wt.%, Lipoid S100 1.5 wt.%, read-out: Budesonide solubilized), 480 µg/mL; in data set [2] (Vitamin E TPGS 0.50 wt.%, Lipoid S100 2.0 wt.%, read-out: Budesonide solubilized) it was 800 µg/mL; in data set [2] (vitamin E TPGS 0.04 wt.-%, polysorbate 80 0.06 wt.-%, lecithin 1.0 wt.-%, read-out: Budesonide colloidally solubilized concentration), 380 µg/mL. In data set [2] (vitamin E TPGS 0.2 wt.-%, polysorbate 80 0.3 wt.-%, lecithin 3.0 wt.-%, read-out: Budesonide colloidally solubilized concentration), the solubility is 950 µg/mL. In addition, in data set [1] (on further increasing the DMPC content), the “Saturation concentration of budesonide in DMPC solutions” value is “could not be increased”.

Take `CCC(=O)O[C@]1(C(=O)SCF)[C@H](C)C[C@H]2[C@@H]3C[C@H](F)C4=CC(=O)C=C[C@]4(C)[C@@]3(F)[C@@H](O)C[C@@]21C` [Fluticasone prop., fluticasone propionate]: the Fluticasone prop. solubilized in data set [2] (Polysorbate 80 0.10 wt.%, Lipoid S100 1.0 wt.%) amounted to 0.07 mg/mL. The solubility in data set [2] (Polysorbate 80 0.50 wt.%, Lipoid S100 3.0 wt.%, read-out: Fluticasone prop. solubilized) was 180 µg/mL.
